Tested on: human A1 receptor
Experiment: Adenosine antagonistic activity: radioligand binding with 3H-DPCPX
Settings: at the dose of 1.0×10^-7 M; radioligand 3H-DPCPX 2×10^-9 M
Text: Test: Adenosine Antagonistic Activity
The adenosine antagonistic activity of the test compound was examined by radioligand binding techniques using 8-cyclopentyl-1,3-dipropylxanthine, dipropyl-2,3-^3 H(N)] (^3 H-DPCPX, 2×10^-9 M) for human A^1 receptor.

CN1CCC(n2nc(-c3c(-c4ccccc4)nn4ccccc34)ccc2=O)CC1 [Example 2, 3-[2-(1-methylpiperidin-4-yl)-3-oxo-2,3-dihydropyridazin-6-yl]-2-phenylpyrazolo[1,5-a]pyridine]
inhibition (%): more than 90%
